Laboratory results from ChEMBL document CHEMBL4052707, “Structure-activity relationships of 3-O-β-chacotriosyl oleanic acid derivatives as entry inhibitors for highly pathogenic H5N1 influenza virus” (Bioorg Med Chem, 2017).
Active and inactive are the calls of the source. The rule behind the calls is not given here.

Legend:
[1] = Cytotoxicity against MDCK cells after 2 days by MTT assay; type: cell-based, Canis lupus familiaris; conditions: dog
[2] = Antiviral activity against Influenza A virus (A/Thailand/Kan353/2004(H5N1)) co-expressing NA plasmid infected in 293T cells assessed as inhibition of viral entry incubated for 30 mins followed by addition of cells measured after 48 hrs by luciferase reporter gene assay; type: functional, cell-based; conditions: HEK-293T
[3] = Selectivity index, ratio of CC50 for MDCK cells to IC50 for Influenza A virus (A/Thailand/Kan353/2004(H5N1); type: toxicity; conditions: dog, read-out: Ratio CC50/IC50
Influenza A virus = assay: Inhibition of Influenza A virus H5N1 neuraminidase N1 subtype at 20 uM/L after 30 mins by fluorescence assay
[4] = (§1) Binding affinity to Influenza A virus (A/Viet Nam/1203/2004(H5N1)) Fc-tagged hemagglutinin 2 after 250 secs by SPR analysis
[5] = test system: Influenza A virus (A/Viet Nam/1203/2004(H5N1)); assay: as §1
[6] = test system: Influenza A virus (A/Vietnam/1194/2004(H5N1)); assay: (§2) Binding affinity to Influenza A virus (A/Vietnam/1194/2004(H5N1)) His-tagged hemagglutinin after 250 secs by SPR analysis
[7] = as §2
[8] = molecular target: Peptidyl-prolyl cis-trans isomerase FKBP1A (Homo sapiens) (UniProt P62942); assay: Binding affinity to FKBP12 (unknown origin) after 250 secs by SPR analysis
Chain of Peptidyl-prolyl cis-trans isomerase FKBP1A (Homo sapiens) (P62942 whole entry): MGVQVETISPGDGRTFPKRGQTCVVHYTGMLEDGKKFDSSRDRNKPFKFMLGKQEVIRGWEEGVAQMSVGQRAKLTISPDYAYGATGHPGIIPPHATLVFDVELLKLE

[9] = test system: Human immunodeficiency virus 1; assay: Antiviral activity against VSV-g pseudotyped HIV1 infected in 293T cells cotransfected with HA and NA plasmid incubated for 30 mins followed by addition of cells measured after 48 hrs by luciferase reporter gene assay; type: functional, cell-based
[10] = test system: Influenza A virus (A/Puerto Rico/8/1934(H1N1)); assay: Inhibition of Influenza A virus (A/Puerto Rico/8/34(H1N1)) […] hemagglutination of chicken RBC at 20 uM incubated for 1 hr followed by chicken RBC addition measured for 10 mins

Row | SMILES | CC50 at 48 h [1] [µM] | IC50 [2] [µM] | selectivity ratio [3] | inhibition (Influenza A virus) | Kd [4] [µM] | Activity [5] | Activity [6] | Kd [7] [µM] | Activity [8] | Activity [9] | inhibition [10]
1 | COC(=O)[C@]12CCC(C)(C)C[C@H]1C1=CC(=O)[C@@H]3[C@@]4(C)CC[C@H](O[C@@H]5O[C@H](CO)[C@@H](O[C@@H]6O[C@@H](C)[C@H](O)[C@@H](O)[C@H]6O)[C@H](O)[C@H]5O[C@@H]5O[C@@H](C)[C@H](O)[C@@H](O)[C@H]5O)C(C)(C)[C@@H]4CC[C@@]3(C)[C@]1(C)CC2 | 33.8 | 4.1 | 8.3 | – | – | – | – | – | – | – | –
2 | C[C@H]1O[C@H](O[C@H]2[C@H](O[C@H]3CC[C@]4(C)[C@H]5CC=C6[C@@H]7CC(C)(C)CC[C@]7(C(=O)OCc7ccccc7)CC[C@@]6(C)[C@]5(C)CC[C@H]4C3(C)C)O[C@H](CO)[C@@H](O[C@H]3O[C@H](C)[C@@H](O)[C@H](O)[C@@H]3O)[C@@H]2O)[C@@H](O)[C@@H](O)[C@@H]1O | 52.4 | > 50 | < 1 | – | – | – | – | – | – | – | –
3 | C[C@H]1O[C@H](O[C@@H]2[C@H](O)[C@@H](O[C@H]3O[C@H](C)[C@@H](O)[C@H](O)[C@@H]3O)[C@H](O[C@H]3CC[C@]4(C)[C@H]5CC=C6[C@@H]7CC(C)(C)CC[C@]7(C(=O)OCc7ccccc7)CC[C@@]6(C)[C@]5(C)CC[C@H]4C3(C)C)O[C@@H]2CO)[C@@H](O)[C@@H](O)[C@@H]1O | 82.4 | 9.36 | 8.8 | – | – | – | – | – | – | – | –
4 | CC1(C)CC[C@]2(C(=O)OCc3ccccc3)CC[C@]3(C)C(=CC[C@@H]4[C@@]5(C)CC[C@H](O[C@@H]6O[C@H](CO)[C@@H](O[C@@H]7OC[C@H](O)[C@H](O)[C@H]7O)[C@H](O)[C@H]6O[C@@H]6OC[C@H](O)[C@H](O)[C@H]6O)C(C)(C)[C@@H]5CC[C@]43C)[C@@H]2C1 | 26.4 | > 50 | < 1 | – | – | – | – | – | – | – | –
5 | COC(=O)[C@]12CCC(C)(C)C[C@H]1C1=CC[C@@H]3[C@@]4(C)CC[C@H](O[C@@H]5O[C@H](CO)[C@H](O[C@H]6O[C@H](C)[C@@H](O)[C@H](O)[C@@H]6O)[C@H](O)[C@H]5O[C@H]5O[C@H](C)[C@@H](O)[C@H](O)[C@@H]5O)C(C)(C)[C@@H]4CC[C@@]3(C)[C@]1(C)CC2 | 45.6 | 11.1 | 4.1 | – | – | – | – | – | – | – | –
6 | COC(=O)[C@]12CCC(C)(C)C[C@H]1C1=CC[C@@H]3[C@@]4(C)CC[C@H](O[C@@H]5O[C@H](CO)[C@@H](O)[C@H](O)[C@H]5O[C@@H]5O[C@@H](C)[C@H](O)[C@@H](O)[C@H]5O)C(C)(C)[C@@H]4CC[C@@]3(C)[C@]1(C)CC2 | 23.6 | 16.3 | 1.4 | – | – | – | – | – | – | – | –
7 | CC1(C)CC[C@]2(C(=O)OCc3ccccc3)CC[C@]3(C)C(=CC[C@@H]4[C@@]5(C)CC[C@H](O[C@@H]6O[C@H](CO)[C@@H](O[C@@H]7OC[C@@H](O)[C@@H](O)[C@@H]7O)[C@H](O)[C@H]6O[C@@H]6OC[C@@H](O)[C@@H](O)[C@@H]6O)C(C)(C)[C@@H]5CC[C@]43C)[C@@H]2C1 | 48.2 | > 50 | < 1 | – | – | – | – | – | – | – | –
8 | O=C(NCCN1CCCCC1)c1cc(F)cc(C(F)(F)F)c1 | – | 4.45 | 332 | – | – | – | – | – | – | – | –
9 | C[C@@H]1O[C@@H](O[C@H]2[C@H](O[C@H]3CC[C@]4(C)[C@H]5CC=C6[C@@H]7CC(C)(C)CC[C@]7(C(=O)OCc7ccccc7)CC[C@@]6(C)[C@]5(C)CC[C@H]4C3(C)C)O[C@H](CO)[C@@H](O[C@@H]3O[C@@H](C)[C@H](O)[C@@H](O)[C@H]3O)[C@@H]2O)[C@H](O)[C@H](O)[C@H]1O | 23.5 | 4.82 | 4.9 | – | – | – | – | – | – | – | –
10 | C[C@@H]1O[C@@H](O[C@H]2[C@H](O[C@@H]3CC[C@]4(C)[C@H]5CC=C6[C@@H]7CC(C)(C)CC[C@]7(C(=O)OCc7ccccc7)CC[C@@]6(C)[C@]5(C)CC[C@H]4C3(C)C)O[C@H](CO)[C@@H](O[C@@H]3O[C@@H](C)[C@H](O)[C@@H](O)[C@H]3O)[C@@H]2O)[C@H](O)[C@H](O)[C@H]1O | > 200 | 5.88 | > 34 | inactive | 0.000553 | Dose-dependent effect | Dose-dependent effect | 0.443 | inactive | inactive | –
11 | COC(=O)[C@]12CCC(C)(C)C[C@H]1C1=CC[C@@H]3[C@@]4(C)CC[C@H](O[C@@H]5O[C@H](CO)[C@@H](O)[C@H](O[C@@H]6O[C@@H](C)[C@H](O)[C@@H](O)[C@H]6O)[C@H]5O[C@@H]5O[C@@H](C)[C@H](O)[C@@H](O)[C@H]5O)C(C)(C)[C@@H]4CC[C@@]3(C)[C@]1(C)CC2 | 22.4 | > 50 | < 1 | – | – | – | – | – | – | – | –
12 | COC(=O)[C@]12CCC(C)(C)C[C@H]1C1=CC[C@@H]3[C@@]4(C)CC[C@H](O[C@@H]5O[C@H](CO)[C@@H](O[C@@H]6O[C@@H](C)[C@H](O)[C@@H](O)[C@H]6O)[C@H](O)[C@H]5O[C@@H]5O[C@@H](C)[C@H](O)[C@@H](O)[C@H]5O)C(C)(C)[C@@H]4CC[C@@]3(C)[C@]1(C)CC2 | – | 4.74 | 3.6 | – | – | – | – | – | – | – | –
13 | C[C@@H]1O[C@@H](O[C@H]2[C@H](O[C@H]3CC[C@]4(C)[C@H]5C(=O)C=C6[C@@H]7CC(C)(C)CC[C@]7(C(=O)OCc7ccccc7)CC[C@@]6(C)[C@]5(C)CC[C@H]4C3(C)C)O[C@H](CO)[C@@H](O[C@@H]3O[C@@H](C)[C@H](O)[C@@H](O)[C@H]3O)[C@@H]2O)[C@H](O)[C@H](O)[C@H]1O | 92.7 | 4.05 | 22.9 | inactive | 0.00386 | Dose-dependent effect | Dose-dependent effect | 0.0617 | inactive | inactive | inactive
14 | COC(=O)[C@]12CCC(C)(C)C[C@H]1C1=CC[C@@H]3[C@@]4(C)CC[C@@H](O[C@@H]5O[C@H](CO)[C@@H](O[C@@H]6O[C@@H](C)[C@H](O)[C@@H](O)[C@H]6O)[C@H](O)[C@H]5O[C@@H]5O[C@@H](C)[C@H](O)[C@@H](O)[C@H]5O)C(C)(C)[C@@H]4CC[C@@]3(C)[C@]1(C)CC2 | > 200 | 5.06 | > 40 | – | – | – | – | – | – | – | –
15 | CC1(C)CC[C@]2(C(=O)OCc3ccccc3)CC[C@]3(C)C(=CC[C@@H]4[C@@]5(C)CC[C@H](O[C@@H]6O[C@H](CO)[C@@H](O[C@H]7OC[C@@H](O)[C@H](O)[C@H]7O)[C@H](O)[C@H]6O[C@H]6OC[C@@H](O)[C@H](O)[C@H]6O)C(C)(C)[C@@H]5CC[C@]43C)[C@@H]2C1 | 20.8 | > 50 | < 1 | – | – | – | – | – | – | – | –
16 | C[C@@H]1O[C@H](O[C@H]2[C@H](O[C@H]3CC[C@]4(C)[C@H]5CC=C6[C@@H]7CC(C)(C)CC[C@]7(C(=O)OCc7ccccc7)CC[C@@]6(C)[C@]5(C)CC[C@H]4C3(C)C)O[C@H](CO)[C@@H](O[C@H]3O[C@@H](C)[C@@H](O)[C@@H](O)[C@@H]3O)[C@@H]2O)[C@@H](O)[C@H](O)[C@@H]1O | 27.4 | 8.65 | 3.2 | inactive | – | – | – | – | – | inactive | –
17 | COC(=O)[C@]12CCC(C)(C)C[C@H]1C1=CC[C@@H]3[C@@]4(C)CC[C@H](O[C@@H]5O[C@H](CO)[C@@H](O)[C@H](O[C@@H]6O[C@@H](C)[C@H](O)[C@@H](O)[C@H]6O)[C@H]5O)C(C)(C)[C@@H]4CC[C@@]3(C)[C@]1(C)CC2 | 25.3 | > 50 | < 1 | – | – | – | – | – | – | – | –
